These results are taken from PMC12655351, “Synthesis and Anticancer Activity Evaluation of New 5-((5-Nitrofuran-2-yl)allylidene)-2-thioxo-4-thiazolidinones” (Pharmaceuticals, 2025).

The test system of assay [1] is MCF-7. The conditions noted are these: cited from earlier work.
Assay [2] deals with MDA-MB-231. To be noted: cited from earlier work.
Assay [3] has as its system MCF-7. As to the kind of experiment: [3H]-thymidine incorporation assay. It is filed as cell-based. To be noted: Homo sapiens, MCF7; MCF-7, 24 h of treatment. As to the method:
(§1) Another method of assessing the cytotoxic effects of tested compounds, [^3H]-thymidine incorporation assay, was applied. This method provided the capability to analyze the antiproliferative activity of novel structures on MCF-7 and MDA-MB-231 through their ability to incorporate thymidine into the cells. The acquired results further confirmed the potent activity of the 14b compound as the most prominent structure among the novel compounds (Table 2). The test was carried out in triplicate at concentrations of 5, 15, and 30 μM for the MDA-MB-231 cell line and 1, 5, and 10 μM for the MCF-7 cell line.
(§2) Following the selection of cell lines for further study, the effects of all compounds on cell proliferation were evaluated on MCF-7 and MDA-MB-231 cell lines. Cells were seeded in 24-well plates and cultured as described above. Cells were treated with the compounds at concentrations 1, 5, and 10 μM, and 5, 15, and 30 μM for MCF-7 and MDA-MB-231 cell lines, respectively, for 24 h. Subsequently, 0.5 μCi [^3H]-thymidine was added for 4 h at 37 °C. Then, plates with cells were placed on the ice, the liquid was aspirated, and cells were washed twice with 1mL of 0.05 M Tris-HCl buffer comprising 0.11 M NaCl and precipitated by adding 1 mL per well of 5% trichloroacetic. After precipitation, the cells were dissolved with 1 mL of 0.1 M NaOH with 1% SDS (Sigma-Aldrich, St. Louis, MO, USA) at room temperature (RT). The cell lysates were transferred into scintillation vials containing 2 mL of scintillation fluid (Ultima Gold™ XR, PerkinElmer, MA, USA), and cell-associated radioactivity was measured using a Scintillation Counter 1900 TR, TRI-CARB (Packard, Perkin Elmer, Inc., San Jose, CA, USA). The [^3H]-thymidine uptake was expressed as a percentage of the control value.

In assay [4] the test system is MDA-MB-231. As to the kind of experiment: [3H]-thymidine incorporation assay. The conditions noted are these: Homo sapiens; MDA-MB-231, 24 h of treatment. It is filed as cell-based. The procedure:
as §1, §2
A general note: Dividing cells build labelled thymidine or BrdU into new DNA.

Assay [5] concerns reactive oxygen species in MCF-7 cells. Briefly: H2DCFDA and DAPI double staining. It counts as cell-based, human. To be noted: MCF-7, 1 and 5 μM, one hour. The procedure:
(§3) The double staining method was applied to analyze novel compounds’ effects on the generation of reactive oxygen species. The first dye, H2DCFDA, after conversion to DCF, serves as an indicator of oxidative stress (green fluorescence), while the second one, known as DAPI, was applied to showcase nuclear genetic material of MCF-7 and MDA-MB-231 breast cancer cells (blue fluorescence). The concentrations of compounds were 1 and 5 μM for the MCF-7 cell line and 5 and 10 μM for the MDA-MB-231 cell line. The incubation time after treatment was one hour in both cell lines.
(§4) The influences of 2b, 12b, 14b, and doxorubicin (1 and 5 µM and 5 and 10 µM for MCF-7 and MDA-MB-231 cell lines, respectively) on the generation of reactive oxygen species (ROS) were analyzed. Cells were seeded in 6-well culture plates at 1 × 10^5 cells per well in 1 mL of medium and then treated with compounds for 1 h and then washed with PBS. Double staining was conducted with 20 µM 2′,7′-dichlorodihydrofluorescein diacetate (H2DCFDA) reagent (Thermo Fisher Scientific, Eugene, OR, USA), which is colorless, and is cleaved by intracellular esterases and oxidized to the highly fluorescent 2′,7′-dichlorofluorescein (DCF), and 10 µg/mL of the fluorescent dye 4′,6-diamidino-2-phenylindole (DAPI) (Sigma-Aldrich, St. Louis, MO, USA), which visualizes the nuclear DNA of cells. A Nikon ECLIPSE Ti fluorescence microscope (Nikon, Tokyo, Japan) was used to obtain results which were analyzed using ImageJ software 1.54k (Bethesda, MD, USA). The fluorescence intensity of the DCF reagent was evaluated relative to the control. The number of analyzed cells was above 100.

In assay [6] the test system is reactive oxygen species in MDA-MB-231 cells. As to the kind of experiment: H2DCFDA and DAPI double staining. It counts as cell-based, human. To be noted: MDA-MB-231, 5 and 10 μM, one hour. The procedure: as §3, §4
For the next assay, the system named is HCC-1954. As to the kind of experiment: MTT assay. It counts as cell-based. The conditions noted are these: Homo sapiens, HCC1954; HCC-1954, 24 h of treatment. The procedure:
(§5) The NCI-60 screening protocol utilizes the sulforhodamine B (SRB) assay following 48 h of compound exposure. […] The MTT assay was performed on eleven cancer cell lines: human breast cancer (MDA-MB-231, MCF-7, HCC 1954), human gastric cancer (AGS), human colorectal adenocarcinoma (HT-29, DLD-1, HCT 116), human neuroblastoma (SH SY5Y), and human leukemia (JURKAT, RMPI 8866, K-562) cell lines. The study was conducted in triplicate at the following seven concentrations: 0.62, 1.25, 2.5, 5, 10, 20, and 40 μM.
(§6) The selected cell lines were seeded into 96-well plates and cultured in accordance with the previously described methodology. Then, the cells were treated with all tested compounds and DOX at concentrations of 0.625, 1.25, 2.5, 5.0, 10.0, 20.0, and 40.0 μM for 24 h. A solution of 3-(4,5-dimethyl-2-thiazolyl)-2,5-diphenyl-2H-tetrazolium bromide (Sigma-Aldrich, St. Louis, MO, USA) in phosphate-buffered saline without calcium and magnesium (Corning, Kennebunk, ME, USA) at a concentration of 5 mg/mL was used to carry out MTT assay. After incubation, 20 μL of the prepared MTT solution was added, and then the cells were incubated at 37 °C for two hours. Afterwards, the cells were lysed using 100 μL of lysing buffer (comprising 25 mM HCl, 2% acetic acid, 3% DMF, and 5% SDS, with a pH of 4.7). The absorbance was determined at a wavelength of 570 nm using an Absorbance 96 microplate reader (Byonoy GmbH, Hamburg, Germany).
(Formazan colour is commonly taken as a measure of viable cells.)

The subject of another assay is RPMI 8866. Briefly: MTT assay. The conditions noted are these: Homo sapiens; RPMI 8866, 24 h of treatment. It is filed as cell-based. The procedure:
as §5, §6

Another assay concerns Jurkat. As to the kind of experiment: MTT assay. It is filed as cell-based. To be noted: Homo sapiens, 24 h of treatment. As to the method:
as §5, §6

The next assay has as its system K562. As to the kind of experiment: MTT assay. The conditions noted are these: Homo sapiens; K562, 24 h of treatment. It is filed as cell-based. As to the method: as §5, §6
Another assay has as its system HT-29. As to the kind of experiment: MTT assay. It counts as cell-based. To be noted: Homo sapiens; HT-29, 24 h of treatment. As to the method: as §5, §6
A further assay has as its system HCT-116. Briefly: MTT assay. It is filed as cell-based. The conditions noted are these: Homo sapiens; HCT-116, 24 h of treatment. The procedure:
as §5, §6

The subject of assay [7] is MCF-7. As to the kind of experiment: MTT assay. To be noted: Homo sapiens, MCF7; MCF-7, 24 h of treatment. It is filed as cell-based. The procedure: as §5, §6
The next assay deals with AGS. Briefly: MTT assay. It counts as cell-based. The conditions noted are these: Homo sapiens, 24 h of treatment. As to the method: as §5, §6
Another assay deals with DLD-1. As to the kind of experiment: MTT assay. It counts as cell-based. To be noted: Homo sapiens; DLD-1, 24 h of treatment. As to the method: as §5, §6
The subject of a further assay is SH SY5Y. As to the kind of experiment: MTT assay. It counts as cell-based. To be noted: Homo sapiens, 24 h of treatment. The procedure: as §5, §6
For assay [8], the system named is MDA-MB-231. As to the kind of experiment: MTT assay. It is filed as cell-based. To be noted: Homo sapiens; MDA-MB-231, 24 h of treatment. As to the method: as §5, §6

Where a name gives a salt, the structure may show the parent alone. Read-outs that look alike come from different tables or passages of the source.

With `N.N.[Cl][Pt][Cl]` [cisplatin], the IC50 was about 80000 nM in the assay on MCF-7 [1] (MCF-7 ref 39, read-out: concentration required to inhibit more than 50%) and about 80000 nM in the assay on MDA-MB-231 [2] (MDA-MB-231 ref 39, read-out: concentration required to inhibit more than 50%).

`COc1cccc2c1C(=O)c1c(O)c3c(c(O)c1C2=O)C[C@@](O)(C(=O)CO)C[C@@H]3O[C@H]1C[C@H](N)[C@H](O)[C@H](C)O1` [DOX, Doxorubicin hydrochloride, reference compound]: the IC50 in the assay with MCF-7 [3] amounted to 1780 nM; in the assay on MDA-MB-231 [4], 360 nM; in the assay with HCC-1954, 3140 nM; in the assay with RPMI 8866, 380 nM; with Jurkat, 720 nM; with K562, 430 nM. For the same compound, the IC50 came to 730 nM with HT-29; 16800 nM in the assay with HCT-116; 730 nM with MCF-7 [7]; 1090 nM in the assay on AGS; 2830 nM in the assay on DLD-1; 39900 nM with SH SY5Y. Moreover, in the assay with MDA-MB-231 [8], the IC50 amounted to 7530 nM. In addition, the “generation of reactive oxygen species” value in [5] and in [6] was “fewer effects on reactive oxygen species generation” each time.

On to `CC(C)C(C(=O)O)N1C(=O)/C(=C/C(Cl)=C/c2ccc([N+](=O)[O-])cc2)SC1=S` (stereo not shown) [substructure B, 2-{5-[(Z,2Z)-2-Chloro-3-(4-nitrophenyl)-2-propenylidene]-4-oxo-2-thioxothiazolidin-3-yl}-3-methylbutanoic Acid], for which the IC50 in the assay on MCF-7 [1] (MCF-7 ref 4, read-out: IC50) was 5020 nM; with MDA-MB-231 [2] (MDA-MB-231 ref 4, read-out: IC50), 15200 nM.
